From publication PMC7486443, “Generation of Phenothiazine with Potent Anti-TLK1 Activity for Prostate Cancer Therapy” (iScience, 2020)

How the values were obtained:
Assay in all cases: biochemical
Parameters in all cases: DiscoverX KINOMEscan scanMAX competition binding panel, single concentration, percent of control; remaining binding: dose or concentration left out as unconfirmed
Details in all cases: KINOMEscan binding, percent of control; read-out: Table S4_SCANMAX REPORT - related to Fig. 1 / Percent Control
AXL = AXL (Homo sapiens, UniProt P30530)
BLK = BLK (Homo sapiens, UniProt P51451)
CTK = biological target: T1, CTK (Homo sapiens, UniProt P42679)
T1 construct: gene MATK

EGFR(L861Q) = EGFR(L861Q) (Homo sapiens, UniProt P00533, L861Q)
EGFR(L861Q), sequence (P00533 whole entry L861Q): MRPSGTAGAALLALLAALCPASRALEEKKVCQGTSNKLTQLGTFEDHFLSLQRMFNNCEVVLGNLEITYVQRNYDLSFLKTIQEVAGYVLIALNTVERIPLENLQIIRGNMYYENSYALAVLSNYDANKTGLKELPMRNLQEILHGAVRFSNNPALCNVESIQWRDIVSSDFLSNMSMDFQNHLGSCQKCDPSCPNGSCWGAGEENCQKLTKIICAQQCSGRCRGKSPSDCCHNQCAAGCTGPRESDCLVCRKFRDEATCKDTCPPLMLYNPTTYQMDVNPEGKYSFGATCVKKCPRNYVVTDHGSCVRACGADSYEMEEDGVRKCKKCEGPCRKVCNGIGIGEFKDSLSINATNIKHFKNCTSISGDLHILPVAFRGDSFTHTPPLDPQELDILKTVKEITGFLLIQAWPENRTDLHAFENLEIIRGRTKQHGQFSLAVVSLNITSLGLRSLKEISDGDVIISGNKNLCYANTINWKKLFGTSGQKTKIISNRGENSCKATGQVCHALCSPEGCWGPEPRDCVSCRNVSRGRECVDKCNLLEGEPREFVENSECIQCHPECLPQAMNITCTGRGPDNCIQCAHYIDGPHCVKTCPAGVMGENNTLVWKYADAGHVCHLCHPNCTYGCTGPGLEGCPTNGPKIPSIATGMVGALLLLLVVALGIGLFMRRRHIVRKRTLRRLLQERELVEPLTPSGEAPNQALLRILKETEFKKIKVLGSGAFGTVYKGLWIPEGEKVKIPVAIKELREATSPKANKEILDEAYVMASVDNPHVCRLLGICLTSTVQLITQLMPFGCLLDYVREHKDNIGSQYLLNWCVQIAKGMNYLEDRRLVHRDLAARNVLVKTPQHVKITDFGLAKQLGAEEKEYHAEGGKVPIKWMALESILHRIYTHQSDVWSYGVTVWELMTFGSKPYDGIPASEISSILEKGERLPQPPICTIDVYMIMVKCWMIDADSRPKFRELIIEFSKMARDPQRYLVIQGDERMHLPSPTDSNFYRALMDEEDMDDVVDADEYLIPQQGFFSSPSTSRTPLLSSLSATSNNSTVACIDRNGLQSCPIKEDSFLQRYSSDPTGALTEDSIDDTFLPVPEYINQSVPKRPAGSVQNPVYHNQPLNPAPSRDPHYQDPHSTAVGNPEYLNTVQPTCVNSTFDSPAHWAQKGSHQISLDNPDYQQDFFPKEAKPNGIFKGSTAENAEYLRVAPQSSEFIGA

FAK = biological target: T2, FAK (Homo sapiens, UniProt Q05397)
T2 construct: gene PTK2

FGFR4 = FGFR4 (Homo sapiens, UniProt P22455)
FGFR4, sequence (P22455 whole entry): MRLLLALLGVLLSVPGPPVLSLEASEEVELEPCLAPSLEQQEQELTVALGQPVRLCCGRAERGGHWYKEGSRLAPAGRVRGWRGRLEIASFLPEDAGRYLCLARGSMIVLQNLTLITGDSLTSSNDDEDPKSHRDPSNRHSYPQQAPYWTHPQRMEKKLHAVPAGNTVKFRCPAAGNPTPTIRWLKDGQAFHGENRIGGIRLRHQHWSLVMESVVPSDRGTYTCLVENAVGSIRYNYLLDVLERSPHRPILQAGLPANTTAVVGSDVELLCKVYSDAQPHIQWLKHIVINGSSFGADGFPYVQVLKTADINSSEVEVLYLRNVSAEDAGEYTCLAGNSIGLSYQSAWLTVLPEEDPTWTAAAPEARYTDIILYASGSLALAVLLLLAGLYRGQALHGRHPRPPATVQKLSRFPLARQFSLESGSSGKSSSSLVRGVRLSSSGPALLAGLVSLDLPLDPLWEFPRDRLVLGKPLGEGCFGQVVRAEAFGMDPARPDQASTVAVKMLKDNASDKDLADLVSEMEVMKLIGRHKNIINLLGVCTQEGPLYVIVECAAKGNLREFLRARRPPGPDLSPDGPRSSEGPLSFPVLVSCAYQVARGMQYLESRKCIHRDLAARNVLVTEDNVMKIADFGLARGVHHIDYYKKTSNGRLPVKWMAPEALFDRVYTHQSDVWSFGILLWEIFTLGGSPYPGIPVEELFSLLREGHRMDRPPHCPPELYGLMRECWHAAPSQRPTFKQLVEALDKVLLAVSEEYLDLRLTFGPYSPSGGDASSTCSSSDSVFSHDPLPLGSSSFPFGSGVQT

FLT3(D835Y) = FLT3(D835Y) (Homo sapiens, UniProt P36888, D835Y)
GRK2 = GRK2 (Homo sapiens, UniProt P25098)
LOK = biological target: T3, LOK (Homo sapiens, UniProt O94804)
T3 construct: gene STK10

MELK = MELK (Homo sapiens, UniProt Q14680)
MYO3B = MYO3B (Homo sapiens, UniProt Q8WXR4)
PCTK3 = biological target: T4, PCTK3 (Homo sapiens, UniProt Q07002)
T4 construct: gene CDK18
T4 sequence (Q07002 whole entry): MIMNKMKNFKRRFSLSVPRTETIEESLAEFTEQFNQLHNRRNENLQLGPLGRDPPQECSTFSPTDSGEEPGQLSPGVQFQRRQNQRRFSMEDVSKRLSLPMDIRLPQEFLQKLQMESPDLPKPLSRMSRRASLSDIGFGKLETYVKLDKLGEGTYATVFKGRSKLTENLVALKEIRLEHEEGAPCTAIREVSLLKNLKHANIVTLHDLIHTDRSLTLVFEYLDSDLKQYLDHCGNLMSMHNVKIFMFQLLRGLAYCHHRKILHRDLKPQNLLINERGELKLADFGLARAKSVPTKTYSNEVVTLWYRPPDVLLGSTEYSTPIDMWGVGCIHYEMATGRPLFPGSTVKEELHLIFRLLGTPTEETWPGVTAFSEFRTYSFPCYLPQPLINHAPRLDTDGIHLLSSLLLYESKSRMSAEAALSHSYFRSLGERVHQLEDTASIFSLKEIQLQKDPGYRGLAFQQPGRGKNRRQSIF

RET(V804L) = RET(V804L) (Homo sapiens, UniProt P07949, V804L)
RET(V804L), sequence (P07949 whole entry V804L): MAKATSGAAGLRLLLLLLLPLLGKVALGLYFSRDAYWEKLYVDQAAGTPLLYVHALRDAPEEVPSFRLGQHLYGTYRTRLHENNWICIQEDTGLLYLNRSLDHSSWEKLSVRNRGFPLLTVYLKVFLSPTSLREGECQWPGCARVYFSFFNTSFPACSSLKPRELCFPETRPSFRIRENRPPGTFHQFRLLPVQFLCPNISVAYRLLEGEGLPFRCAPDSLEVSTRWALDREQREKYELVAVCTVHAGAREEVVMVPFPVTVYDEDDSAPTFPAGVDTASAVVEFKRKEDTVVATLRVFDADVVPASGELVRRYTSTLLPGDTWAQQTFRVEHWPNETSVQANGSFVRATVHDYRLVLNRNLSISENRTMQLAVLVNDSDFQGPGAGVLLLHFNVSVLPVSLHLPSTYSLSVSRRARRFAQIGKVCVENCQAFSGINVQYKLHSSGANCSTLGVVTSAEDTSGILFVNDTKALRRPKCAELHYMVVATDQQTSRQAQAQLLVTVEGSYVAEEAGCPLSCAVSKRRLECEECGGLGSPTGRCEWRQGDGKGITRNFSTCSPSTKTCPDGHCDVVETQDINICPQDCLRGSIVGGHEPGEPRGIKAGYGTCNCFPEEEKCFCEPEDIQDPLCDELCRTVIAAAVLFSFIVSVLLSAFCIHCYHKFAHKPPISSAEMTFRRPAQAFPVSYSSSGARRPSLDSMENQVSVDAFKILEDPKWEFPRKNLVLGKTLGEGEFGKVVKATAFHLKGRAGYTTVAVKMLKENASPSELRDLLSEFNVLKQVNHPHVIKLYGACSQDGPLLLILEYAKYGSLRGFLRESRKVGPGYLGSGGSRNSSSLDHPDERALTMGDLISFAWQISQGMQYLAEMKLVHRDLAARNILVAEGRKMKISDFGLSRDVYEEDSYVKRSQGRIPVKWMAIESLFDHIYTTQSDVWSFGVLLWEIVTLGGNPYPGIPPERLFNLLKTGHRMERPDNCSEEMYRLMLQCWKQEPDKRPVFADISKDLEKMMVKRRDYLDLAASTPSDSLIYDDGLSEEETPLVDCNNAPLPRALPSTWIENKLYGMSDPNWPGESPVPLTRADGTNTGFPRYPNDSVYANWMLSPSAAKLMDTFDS

[1] = biological target: T5, RSK1(Kin.Dom.1-N-terminal) (Homo sapiens, UniProt Q15418)
T5 construct: gene RPS6KA1; Kin.Dom.1-N-terminal

[2] = biological target: T6, RSK2(Kin.Dom.1-N-terminal) (Homo sapiens, UniProt P51812)
T6 construct: gene RPS6KA3; Kin.Dom.1-N-terminal

[3] = biological target: T7, RSK4(Kin.Dom.1-N-terminal) (Homo sapiens, UniProt Q9UK32)
T7 construct: gene RPS6KA6; Kin.Dom.1-N-terminal
T7 sequence (Q9UK32 whole entry): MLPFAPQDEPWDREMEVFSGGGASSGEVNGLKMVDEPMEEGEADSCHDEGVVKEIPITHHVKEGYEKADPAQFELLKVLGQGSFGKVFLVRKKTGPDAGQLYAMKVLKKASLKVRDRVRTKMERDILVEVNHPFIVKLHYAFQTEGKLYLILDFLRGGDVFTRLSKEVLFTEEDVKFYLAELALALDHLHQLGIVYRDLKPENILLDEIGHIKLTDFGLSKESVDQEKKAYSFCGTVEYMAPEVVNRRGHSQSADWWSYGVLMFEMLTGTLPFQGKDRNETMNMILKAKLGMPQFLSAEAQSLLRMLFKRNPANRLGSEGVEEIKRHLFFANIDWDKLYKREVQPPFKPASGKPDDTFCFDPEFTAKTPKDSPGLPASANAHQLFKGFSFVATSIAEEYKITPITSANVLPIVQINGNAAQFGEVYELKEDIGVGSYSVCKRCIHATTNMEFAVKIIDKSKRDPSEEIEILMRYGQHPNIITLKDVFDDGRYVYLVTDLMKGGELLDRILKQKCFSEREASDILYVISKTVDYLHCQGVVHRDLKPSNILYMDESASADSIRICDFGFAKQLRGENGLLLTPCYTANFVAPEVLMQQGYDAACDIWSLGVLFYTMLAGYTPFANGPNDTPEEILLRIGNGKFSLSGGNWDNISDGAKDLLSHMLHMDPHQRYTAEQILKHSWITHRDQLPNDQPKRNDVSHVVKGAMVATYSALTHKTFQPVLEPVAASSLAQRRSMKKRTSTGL

[4] = biological target: T8, TYK2(JH1domain-catalytic) (Homo sapiens, UniProt P29597)
T8 construct: JH1domain-catalytic

YSK1 = biological target: T9, YSK1 (Homo sapiens, UniProt O00506)
T9 construct: gene STK25
T9 sequence (O00506 whole entry): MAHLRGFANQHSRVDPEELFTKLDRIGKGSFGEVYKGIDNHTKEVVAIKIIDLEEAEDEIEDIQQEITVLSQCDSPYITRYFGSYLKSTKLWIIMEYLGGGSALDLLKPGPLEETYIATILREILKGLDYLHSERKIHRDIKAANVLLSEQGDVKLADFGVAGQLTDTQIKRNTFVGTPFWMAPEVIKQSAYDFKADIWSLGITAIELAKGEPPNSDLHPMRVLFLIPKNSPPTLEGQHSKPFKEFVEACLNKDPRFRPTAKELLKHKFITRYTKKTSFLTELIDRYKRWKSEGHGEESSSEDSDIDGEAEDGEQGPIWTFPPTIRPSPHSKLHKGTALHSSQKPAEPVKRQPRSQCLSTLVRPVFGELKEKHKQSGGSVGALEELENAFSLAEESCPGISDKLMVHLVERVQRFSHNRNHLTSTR

c1ccc2c(c1)Sc1ccccc1N2CCN1CCOCC1 [J54]
remaining binding (AXL): 99%
remaining binding (BLK): 60%
remaining binding (CTK): 95%
remaining binding (EGFR(L861Q)): 94%
remaining binding (FAK): 92%
remaining binding (FGFR4): 100%
remaining binding (FLT3(D835Y)): 79%
remaining binding (GRK2): 93%
remaining binding (LOK): 100%
remaining binding (MELK): 84%
remaining binding (MYO3B): 100%
remaining binding (PCTK3): 100%
remaining binding (RET(V804L)): 88%
remaining binding [1]: 100%
remaining binding [2]: 97%
remaining binding [3]: 100%
remaining binding [4]: 100%
remaining binding (YSK1): 97%
